For this experiment, the target named is T1, recombinant His-tag Y220C p53 DBD protein (Homo sapiens, UniProt P04637, Y220C).
T1 construct: recombinant His-tag Y220C p53 DBD protein (amino acids #˜94-312)
The experiment is described as follows: In vitro DNA binding activity assay (TR-FRET): binding of His-tag Y220C p53 DBD to biotin-labeled consensus DNA. The experiment is classed as biochemical. As to conditions: SC150 = concentration to increase DNA binding by […], His-tag Y220C p53 DBD, biotin-labeled consensus DNA. Here is the method:
DNA binding activity of the compounds was measured using a TR-FRET (Time-Resolved Fluorescence Resonance Energy Transfer) assay in which recombinant His-tag Y220C p53 DBD protein binds to biotin-labeled consensus DNA. Binding of recombinant His-tag Y220C p53 DBD protein and biotin-labeled consensus DNA was registered by the FRET (fluorescence resonance energy transfer) between allophycocyanin (APC) conjugated anti-His tag antibody and Europium-(Eu) conjugated Streptavidin.
The compounds of TABLES 1-9 (2 mM stock in dimethylsulfoxide) were diluted 3-fold in series in dimethylsulfoxide. 1.2 μL of a compound solution was added to each well of 384-well polypropylene black plates (NUNC). Thirty μL per well of 181 nM recombinant His-tag Y220C p53 DBD protein (amino acids #˜94-312; SEQ ID NO: 1) and 6.1 nM of APC conjugated anti-His tag antibody (Columbia Biosciences) in ice-cold Assay Buffer 1 (50 mM Tris-HCl, pH 7.4, 75 mM KCl, 0.75 mM DTT and 0.2 mg/ml, BSA) were added. As a background control. 30 μL of Assay Buffer 1 containing 6.1 nM of APC anti-His antibody (No Y220C protein) was also added into a second set of serially diluted compound plates. The samples were spun by centrifuge at 1,200 rpm (Eppendorf 5810R Plate centrifuge) for 1 minute and incubated at room temperature (20° C.) for 15 min. The samples were then further incubated at either 27° C. or 29° C. for 60 min. […] The samples were spun by centrifuge at 1,200 rpm for 1 min and incubated at room temperature (20° C.) for 20 min. Assay signals were monitored by reading excitation at 340 nm, and emission fluorescence at 615 nm and 665 nm on an Envision® reader. Normalized TR-FRET (time-resolved fluorescence resonance energy transfer) assay signal (Rn) was calculated by the formula: Rn=[(A−Ba−C×(D−Bd))/(D−Bd)]×(D−Bd) Wherein: • A is the fluorescence intensity of the sample at 665 nm; • D is the fluorescence intensity of the sample at 615 nm; • Ba and Bd are plate backgrounds at 665 nm and 615 nm, respectively; and • Dc is the fluorescence intensity of 0.67 nM Eu-SA in the assay buffer at 615 nm.
The cross-talk factor (C) was determined by the following formula: C=(Ac−Ba)/(Dc−Bd) wherein Ac is the fluorescence intensity of 0.67 nM Europium (Eu) conjugated Streptavidin in the assay buffer at 665 nm.

Molecules are shown by their SMILES.

As for `COC(C)(C)c1ccc(C(=O)NCc2nc(-c3cc4c(N[C@@H]5CCNC[C@@H]5F)cccc4n3CC(F)(F)F)no2)s1` [Compound 480B], the “Y220C SC150 (μM)” value is “* (* = 0 μM ≤ SC150 < 0.1 μM)”.

In the case of `CC(C)n1cc(C(=O)NCc2nc(-c3cc4c(N[C@@H]5CCN(C)C[C@@H]5F)cccc4n3CC(F)(F)F)no2)cn1` [Compound 255B, N-{[3-(4-{[(3S,4R)-3-fluoro-1-methylpiperidin-4-yl]amino}-1-(2,2,2-trifluoroethyl)-1H-indol-2-yl)-1,2,4-oxadiazol-5-yl]methyl}-1-(propan-2-yl)-1H-pyrazole-4-carboxamide], the “Y220C SC150 (μM)” value was “* (* = 0 μM ≤ SC150 < 0.1 μM)”.

Turning to `CN1CC[C@@H](Nc2cccc3c2cc(-c2noc(CNC(=O)c4ccnc(C(C)(C)O)c4)n2)n3CC(F)(F)F)[C@@H](F)C1` [Compound 550B, N-{[3-(4-{[(3S,4R)-3-fluoro-1-methylpiperidin-4-yl]amino}-1-(2,2,2-trifluoroethyl)-1H-indol-2-yl)-1,2,4-oxadiazol-5-yl]methyl}-2-(2-hydroxypropan-2-yl)pyridine-4-carboxamide], the “Y220C SC150 (μM)” value is reported as “* (* = 0 μM ≤ SC150 < 0.1 μM)”.

`CC1(n2ccc(C(=O)NCc3nc(-c4cc5c(N[C@@H]6CCOC[C@@H]6F)cccc5n4CC(F)(F)F)no3)c2)CCOCC1` (stereo in doubt) [Compound 494B, N-((3-(4-(((3R,4R)-3-fluorotetrahydro-2H-pyran-4-yl)amino)-1-(2,2,2-trifluoroethyl)-1H-indol-2-yl)-1,2,4-oxadiazol-5-yl)methyl)-1-(4-methyltetrahydro-2H-pyran-4-yl)-1H-pyrrole-3-carboxamide]: the “Y220C SC150 (μM)” value is “* (* = 0 μM ≤ SC150 < 0.1 μM)”.

Consider `COc1cccc(C(=O)NCc2nnc(-c3cc4c(NC5CCN(C)CC5)cccc4n3CC(F)(F)F)s2)c1` [Compound 64B, 3-methoxy-N-[(5-{4-[(1-methylpiperidin-4-yl)amino]-1-(2,2,2-trifluoroethyl)-1H-indol-2-yl}-1,3,4-thiadiazol-2-yl)methyl]benzamide], for which the “Y220C SC150 (μM)” value is “* (* = 0 μM ≤ SC150 < 0.1 μM)”.

Turning to `CN1CC[C@@H](Nc2cccc3c2cc(-c2noc(CNC(=O)c4cnn(C5CCCC5)c4)n2)n3CC(F)(F)F)[C@@H](F)C1` [Compound 312B, 1-cyclopentyl-N-{[3-(4-{[(3S,4R)-3-fluoro-1-methylpiperidin-4-yl]amino}-1-(2,2,2-trifluoroethyl)-1H-indol-2-yl)-1,2,4-oxadiazol-5-yl]methyl}-1H-pyrazole-4-carboxamide], the “Y220C SC150 (μM)” value is “* (* = 0 μM ≤ SC150 < 0.1 μM)”.

For `COCC(C)(C)n1ccc(C(=O)NCc2nc(-c3cc4c(N[C@@H]5CCN(C)C[C@@H]5F)cccc4n3CC(F)(F)F)no2)c1` [Compound 383B, N-{[3-(4-{[(3S,4R)-3-fluoro-1-methylpiperidin-4-yl]amino}-1-(2,2,2-trifluoroethyl)-1H-indol-2-yl)-1,2,4-oxadiazol-5-yl]methyl}-1-(1-methoxy-2-methylpropan-2-yl)-1H-pyrrole-3-carboxamide], the “Y220C SC150 (μM)” value is “* (* = 0 μM ≤ SC150 < 0.1 μM)”.

As for `CC(C)(C)n1ccc(C(=O)NCc2nc(-c3cc4c(N[C@H]5CCC(=O)NC5)cccc4n3CC(F)(F)F)no2)c1` [Compound 356B, 1-tert-butyl-N-{[3-(4-{[(3S)-6-oxopiperidin-3-yl]amino}-1-(2,2,2-trifluoroethyl)-1H-indol-2-yl)-1,2,4-oxadiazol-5-yl]methyl}-1H-pyrrole-3-carboxamide], the “Y220C SC150 (μM)” value is “* (* = 0 μM ≤ SC150 < 0.1 μM)”.

`CN1CC[C@@H](Nc2cccc3c2cc(-c2noc(CNC(=O)c4ccn(CC(F)F)c4)n2)n3CC(F)(F)F)[C@@H](F)C1` [Compound 250B, 1-(2,2-difluoroethyl)-N-{[3-(4-{[(3S,4R)-3-fluoro-1-methylpiperidin-4-yl]amino}-1-(2,2,2-trifluoroethyl)-1H-indol-2-yl)-1,2,4-oxadiazol-5-yl]methyl}-1H-pyrrole-3-carboxamide]: the “Y220C SC150 (μM)” value was “* (* = 0 μM ≤ SC150 < 0.1 μM)”.

For the origin of these results see patent US11807644B2 (PMV Pharmaceuticals, Inc., priority 2020, dated 2023).
